In patent US11116804B2, “Modulation of the gut microbiome to treat mental disorders or diseases of the central nervous system” (Holobiome, Inc., priority 2016, dated 2021):
“Also recorded” adds a separate entry of the source.

How the values were obtained:
[1] = in mice; cited from earlier work
[2] = in rodents; cited from earlier work
[3] = tested on: E. gabavorous KLE1738; assay: Growth induction of E. gabavorous by compounds spotted on FAAy plates; format: cell-based, Evtepia gabavorous; conditions: 5 μL of stock spotted on FAAy plates spread with E. gabavorous, anaerobic, one week
Experimental: Stocks of each compound (purchased from Sigma, excluding the ATCC Mineral and Vitamin mixes) were prepared dependent on solubility in water at the concentrations shown in FIG. 2G. Five μL of the stocks were then spotted on FAAy plates spread with E. gabavorous, and incubated anaerobically for one week, and any growth was observed.

SMILES	half-life [1] [min]	brain efflux rate relative to influx rate [2] [times]	growth induction of E. gabavorous by spotted compound [3]
NCCCC(=O)O [GABA, gamma-aminobutyric acid]	17	17	capable of inducing growth of E. gabavorous KLE1738; also recorded: caused growth induction; also recorded: induced growth
C[C@H](N)C(=O)O [alanine]			only GABA caused growth induction
NC(=O)CC[C@H](N)C(=O)O [glutamine]			only GABA caused growth induction
CC(O)C(=O)O (stereo not shown) [lactic acid]			only GABA caused growth induction
O=C(O)CC(=O)O [malonic acid]			only GABA caused growth induction
O=C(O)CCC(=O)O [succinic acid]			only GABA caused growth induction
C[C@@H](O)[C@H](N)C(=O)O [threonine]			only GABA caused growth induction
CC(C)[C@H](N)C(=O)O [valine]			only GABA caused growth induction
